Results on two compounds are retold here after US5128448A, “CCK analogs with appetite regulating activity” (Hoffman-La Roche Inc., priority 1990, dated 1992).

Non-standard residues stand in square brackets, D forms with d. Residues, ends and D or L forms follow the SMILES beside them. sY = N[C@@H](Cc1ccc(OS(=O)(=O)O)cc1)C(=O)O; 2Nal = N[C@@H](Cc1ccc2ccccc2c1)C(=O)O; Cha = N[C@@H](CC1CCCCC1)C(=O)O

This data set addresses Human neutral metalloendopeptidase (Homo sapiens, UniProt P08473). Put plainly: Degradation by human neutral metalloendopeptidase (HPLC). As to conditions: for % Degradation by Heights: 37° C., tris-HCl pH 7.6; for No. of Peaks: HPLC. Type of data set: in vitro ADME. The procedure: Human neutral metalloendopeptidase (0.01 mg) and 5 nmol of peptide were incubated in […] tris-HCl buffer (pH 7.6) and at 37° C. for varying periods of time. The degradation of the peptide was monitored by analytical HPLC on a 5 micron Adsorbosphere-ODS column with 0-50% CH3 CN gradient in 0.1N potassium phosphate buffer, pH 3.0, with UV detection at 210 nm. Rates are based on presumed production of Asp-Tyr(SO3 H)-Met-Gly for CCK-8 and Ac-Tyr(SO3 H)-Met-Gly for the compound of example 73.

Sequence of Human neutral metalloendopeptidase (P08473 whole entry): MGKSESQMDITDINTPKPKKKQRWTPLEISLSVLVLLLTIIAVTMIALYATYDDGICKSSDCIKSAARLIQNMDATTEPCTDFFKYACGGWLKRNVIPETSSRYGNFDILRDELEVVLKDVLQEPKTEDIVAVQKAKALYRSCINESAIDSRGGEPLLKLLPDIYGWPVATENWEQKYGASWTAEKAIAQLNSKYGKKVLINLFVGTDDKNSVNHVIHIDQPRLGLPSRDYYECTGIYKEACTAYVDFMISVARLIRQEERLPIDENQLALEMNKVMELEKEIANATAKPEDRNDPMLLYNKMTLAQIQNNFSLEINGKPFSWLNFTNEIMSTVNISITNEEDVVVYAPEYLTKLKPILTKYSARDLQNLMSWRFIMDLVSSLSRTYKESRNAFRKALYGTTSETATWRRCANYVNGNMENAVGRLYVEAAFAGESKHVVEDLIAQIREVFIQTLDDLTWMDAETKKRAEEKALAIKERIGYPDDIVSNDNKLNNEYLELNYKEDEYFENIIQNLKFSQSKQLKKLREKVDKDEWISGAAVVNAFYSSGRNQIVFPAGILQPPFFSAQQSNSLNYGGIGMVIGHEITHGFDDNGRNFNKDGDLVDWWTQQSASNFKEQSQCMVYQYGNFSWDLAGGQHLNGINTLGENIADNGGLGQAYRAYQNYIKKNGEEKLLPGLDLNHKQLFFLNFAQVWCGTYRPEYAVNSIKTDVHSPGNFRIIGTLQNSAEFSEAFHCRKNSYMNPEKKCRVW

For the compound `CSCC[C@H](NC(=O)[C@H](Cc1ccc(OS(=O)(=O)O)cc1)NC(=O)[C@@H](N)CC(=O)O)C(=O)NCC(=O)N[C@@H](Cc1c[nH]c2ccccc12)C(=O)N[C@@H](CCSC)C(=O)N[C@@H](CC(=O)O)C(=O)N[C@@H](Cc1ccccc1)C(N)=O` [CCK-8, Asp^26 -Tyr-(SO3 H)^27 -Met^28 -Gly^29 -Trp^30 -Met^31 -Asp^32 -Phe^33 -NH2], the “% Degradation by Heights” value runs as follows: (time of incubation 0 min) 0%; (time of incubation 15 min) 6.2%; (time of incubation 30 min) 33.2%; (time of incubation 60 min) 69.7%. For the same compound, the “No. of Peaks” value (time of incubation 60 min) is recorded as 4.
For `CSCC[C@H](NC(=O)[C@H](Cc1ccc(OS(=O)(=O)O)cc1)NC(C)=O)C(=O)NCC(=O)N[C@@H](Cc1ccc2ccccc2c1)C(=O)N[C@@H](CCSC)C(=O)N[C@@H](CC(=O)O)C(=O)N[C@@H](CC1CCCCC1)C(N)=O` [Example 73, Ac-Tyr(SO3 H)-Met-Gly-(2)Nal-Met-Asp-Cyclohexylalanine-NH2] (Ac-[sY]MG[2Nal]MD[Cha]-NH2), the “% Degradation by Heights” value reads like this: (time of incubation 0 min) 0%; (time of incubation 60 min) 10.0%; (time of incubation 120 min) 27.0%; (time of incubation 240 min) 56.4%. For the same compound, the “No. of Peaks” value (time of incubation 240 min, one peak detected and one peak that coeluted with substrate) came out at 2.
